Test results reported in patent publication US20050203119A1, “Dihydropyridine compounds for treating or preventing metabolic disorders” (priority 2003, published 2005).

Experiments:
[1] = system: Male ZDF rats (ZDF/GmiCrl-fa/fa); experiment: Oral glucose tolerance test in fasted ZDF rats after 8 days of dosing (Example 124, FIG. 10); assay type: in vivo, rat; conditions: OGTT
Procedure: Male ZDF rats (ZDF/GmiCrl-fa/fa), homozygous for a mutation in the gene encoding the leptin receptor, were purchased from Charles River Laboratories (Wilmington, Mass., USA). Animals were individually housed in clear polycarbonate cages (contact bedding) on a 12 hr/12 hr light/dark cycle, acclimated for at least one week prior to use and fed normal laboratory chow (Purina No. 5008) ad libitum. Studies were conducted with animals starting between eleven and twelve weeks of age. Animals were used for a single study before being replaced. […] As noted above, animals were dosed on day 8 on the same schedule as was used for days 1 through 7 of the 7DBG study. […] Serum glucose levels were determined using a laboratory analyzer. […] This may be due to the dose of metformin (250 mg/kg) that was used, which may be too high to observe any synergy between the two compounds. […] The indicated time points are relative to the oral glucose dose.

[2] = system: NIDDM male mice (C57BLKS/J-m+/+Lepr db); experiment: 7 day baseline glucose test in db/db mice (Example 119); assay type: in vivo, mouse; conditions: for Serum Glucose % Pre-Treatment Baseline: 3 hours after dose
Procedure: Non-insulin dependent diabetic mellitus (NIDDM) male mice (C57BLKS/J-m+/+Lepr db), weighing 50±5 g and 9-10-week old, were used. The animals were housed in Individually Ventilated Cages Racks (IVC Racks) throughout the experiment and all animals were allowed free access to sterilized Lab chow and sterilized distilled water. Compounds 39, 41 and 64 at 50 mg/kg as well as vehicle (0.5% Methylcellulose) were administered orally once daily for 7 consecutive days to test animals after the first blood sampling (pre-treatment). The post-treatment blood samples were withdrawn from the orbital sinus at 3 hours after administration of daily dose on day 3 and on day 7. Serum glucose levels in the pre- and post-treatment were determined by enzymatic (Mutaratase-GOD) methods. Post-treatment serum glucose values were expressed in percentage of respective pre-treatment values. Percentage reductions were expressed in percentage of pre-treatment values of test substance relative to percentage of pre-treatment values of vehicle. All percentages were calculated and unpaired; Student's t test was then applied to establish significant difference between the test compound-treated and vehicle control groups. Differences are considered significant at P<0.05.

[3] = system: male KK-Ay mice (KK-Ay/Ta Jcl); experiment: Seven day baseline glucose (7DBG) study in fed KK-Ay mice (Example 123, FIG. 7); assay type: in vivo, mouse; conditions: oral once daily 7 days
Procedure: To determine the effect of a test compound on blood glucose levels in fed diabetic mice, seven day baseline glucose (7DBG) studies were conducted. Six to eight week old, male db/db mice (C57BLKS/J-m+/+Lepr^db/Iar), homozygous for a mutation in the gene encoding the leptin receptor, were purchased from the Institute for Animal Reproduction (Kasumigaura, Japan). Six to eight week old male KK-A^y mice (KK-A^y/Ta Jcl), a polygenic diabetes model, were purchased from Cler Japan (Tokyo, Japan). Animals were housed four to a cage in micro-isolators on a 12 hr/12 hr light/dark cycle, acclimated for at least one week prior to use and fed normal laboratory chow ad libitum. Studies were conducted with animals between nine and fourteen weeks of age. […]
To perform a 7DBG study, the starting glucose levels of db/db or KK-Ay mice in the fed state were determined on day 0, 24 hrs prior to the first drug dose on day 1. Animals were retro-orbitally bled and serum glucose levels measured by the mutarotase-glucose oxidase enzymatic method using a Glucose CII-Test Wako kit (Wako Pure Chemicals Industries, Ltd., Osaka, Japan). […] Serum glucose levels were determined 3 hrs after dosing the first compound on days 3 and 7.
The serum glucose levels on days 3 or 7 as a percent of the serum glucose levels on day 0 for individual animals in each group (8 mice/group), were calculated using Formula 3. […]

[4] = Day 3, 50 mg/kg orally once daily
[5] = Day 7, 50 mg/kg orally once daily

Structure (SMILES): CCOC(=O)C1=C(COCCN)NC2=C(C(=O)CC(C)(C)C2)C1c1cccnc1 (centres unmarked) [Compound 39, 2-(2-Amino-ethoxymethyl)-7,7-dimethyl-5-oxo-4-pyridin-3-yl-1,4,5,6,7,8-hexahydro-quinoline-3-carboxylic acid ethyl ester]
- glucose intolerance relative to vehicle-treated animals (FIG. 10) ([1]; after daily oral dosing for 8 days): decreased
- effect of metformin on glucose tolerance in combination with Compound 39 (FIG. 10) ([1]; metformin 250 mg/kg): did not appear to enhance
- serum glucose % Reduction relative to vehicle [2, 4]: (3) %
- Serum Glucose % Pre-Treatment Baseline [2, 4]: 98.5%
- serum glucose % Reduction relative to vehicle [2, 5]: (18) %
- Serum Glucose % Pre-Treatment Baseline [2, 5]: 82.3%
- glucose lowering activities of rosiglitazone and metformin in combination with Compound 39 (FIG. 7) [3]: enhanced
- serum glucose (FIG. 7) ([3]; Compound 39 alone): decreased serum glucose
